According to patent US8338422B2, “Indolin-2-ones and aza-indolin-2-ones” (Janssen Pharmaceutica NV, priority 2007, dated 2012):
Several values for one entry are separate records, joined by “and”; a condition that tells them apart may be missing. Equal entries are not always repeated.

How the values were obtained:
AuroraB (h) = AuroraB (h) (Homo sapiens, UniProt Q96GD4); assay: Aurora-B human kinase assay (SPA); assay type: biochemical; conditions: for IC50: read-out: AuroraB pIC50 (converted)
In short: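 Scintillation proximity assay: AuroraB (h) at 0.5 μg/ml with 3 μM biotinylated peptide, 0.5 μM ATP and 2.2 nM [γ-33P]ATP in 60 mM Hepes pH 7.5, 3 mM MgCl2, 3 mM MnCl2, 2 mM DTT. 60 min at room temperature, EDTA stop, streptavidin PVT beads read on Leadseeker.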

H1299 = assay: Cellular proliferation assay (Alamar blue), H1299; assay type: cell-based; conditions: H1299 cells, 72 hours with compound, 10% FCS; for IC50: Homo sapiens, NCI-H1299, 72 h, read-out: pIC50 H1299 (converted)
Description: (§1) […] functional properties of these compounds was tested in cellular proliferation assays on a panel of different cell lines in the presence of 10% FCS serum (37° C. and 5% (v/v) CO2). In a first step these cells were seeded and incubated for 24 hours in the absence of compound. In the second step the cells were incubated for 72 hours with the compounds to be tested for 72 hours. The viable cell number was finally assessed in a standard Alamar blue cell viability assay.
(§2) The viable cell number was assessed by incubation for either 4 h (HCT-116, H1299, H460) 6 h (SKOV3, HT29, U87-MG, Colo205) or 24 h (A2780, PC3, MDA-MB-231, A549, MCF-7) with Alamar blue (Resazurin 9 μg/ml, K-Ferrocyanide 90 μM K-Ferricyanide 90 μM) and the converted fluorescent product was quantified on a fluorescent plate readed (544 nm/590 nm). Effect of the compounds is calculated as of on control cells.

PLK4 (h) = PLK4 (h) (Homo sapiens, UniProt O00444); assay: PLK-4 human kinase assay (SPA); assay type: biochemical; conditions: for IC50: read-out: PLK4 pIC50 (converted)
PLK4 (h), sequence (O00444 whole entry): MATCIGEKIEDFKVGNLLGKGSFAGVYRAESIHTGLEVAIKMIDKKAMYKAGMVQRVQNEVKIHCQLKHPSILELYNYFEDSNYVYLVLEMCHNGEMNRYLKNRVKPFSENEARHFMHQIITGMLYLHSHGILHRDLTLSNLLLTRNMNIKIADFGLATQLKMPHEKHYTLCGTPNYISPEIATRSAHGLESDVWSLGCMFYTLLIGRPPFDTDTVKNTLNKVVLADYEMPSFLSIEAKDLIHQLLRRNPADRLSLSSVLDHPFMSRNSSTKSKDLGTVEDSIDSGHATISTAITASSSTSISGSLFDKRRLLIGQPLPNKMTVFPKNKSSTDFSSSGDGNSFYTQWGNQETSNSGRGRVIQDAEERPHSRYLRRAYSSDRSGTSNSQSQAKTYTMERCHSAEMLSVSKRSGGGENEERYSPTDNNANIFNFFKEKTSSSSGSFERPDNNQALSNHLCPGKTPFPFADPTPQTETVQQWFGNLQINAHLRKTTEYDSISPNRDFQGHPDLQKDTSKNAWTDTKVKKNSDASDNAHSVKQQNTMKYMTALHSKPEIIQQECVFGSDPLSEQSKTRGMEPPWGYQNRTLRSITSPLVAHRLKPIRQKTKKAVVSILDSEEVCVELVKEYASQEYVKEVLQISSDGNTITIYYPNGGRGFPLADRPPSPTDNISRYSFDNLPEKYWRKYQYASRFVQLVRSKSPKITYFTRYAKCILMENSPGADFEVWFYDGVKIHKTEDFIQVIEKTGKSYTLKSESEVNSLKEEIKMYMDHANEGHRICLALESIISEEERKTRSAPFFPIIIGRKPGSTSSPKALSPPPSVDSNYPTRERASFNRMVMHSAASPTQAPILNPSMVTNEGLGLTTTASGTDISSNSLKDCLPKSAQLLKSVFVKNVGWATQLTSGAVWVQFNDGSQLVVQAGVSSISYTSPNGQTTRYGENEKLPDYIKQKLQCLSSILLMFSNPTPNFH
In short: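 Radiometric readout: 33P-labelled peptide captured on streptavidin SPA beads after EDTA stop, imaged by Leadseeker. Reaction ran 60 min at room temperature in Hepes pH 8.0 buffer. It contained 1 μM ATP with 2 nM [γ-33P]ATP, 10 μM biotinylated peptide and PLK4 (h) at 19 μg/ml.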

MDA/MB231 = assay: Cellular proliferation assay (Alamar blue), MDA/MB231; assay type: cell-based; conditions: MDA/MB231 cells, 72 hours with compound, 10% FCS; for IC50: Homo sapiens, MDA-MB-231, 72 h, read-out: pIC50 MDA/MB231 (converted)
Description: as §1, §2

HCT-116 = assay: Cellular proliferation assay (Alamar blue), HCT-116; assay type: cell-based; conditions: HCT-116 cells, 72 hours with compound, 10% FCS; for IC50: Homo sapiens, HCT-116, 72 h, read-out: pIC50 HCT-116 (converted)
Description: as §1, §2

A2780 = assay: Cellular proliferation assay (Alamar blue), A2780; assay type: cell-based; conditions: A2780 cells, 72 hours with compound, 10% FCS; for IC50: Homo sapiens, A2780, 72 h, read-out: pIC50 A2780 (converted)
Description: as §1, §2

GSK3β (h) = GSK3β (h) (Homo sapiens, UniProt P49841); assay: GSK-3β human kinase assay (SPA); assay type: biochemical; conditions: for IC50: read-out: GSK3B pIC50 (converted)
GSK3β (h), sequence (P49841 whole entry): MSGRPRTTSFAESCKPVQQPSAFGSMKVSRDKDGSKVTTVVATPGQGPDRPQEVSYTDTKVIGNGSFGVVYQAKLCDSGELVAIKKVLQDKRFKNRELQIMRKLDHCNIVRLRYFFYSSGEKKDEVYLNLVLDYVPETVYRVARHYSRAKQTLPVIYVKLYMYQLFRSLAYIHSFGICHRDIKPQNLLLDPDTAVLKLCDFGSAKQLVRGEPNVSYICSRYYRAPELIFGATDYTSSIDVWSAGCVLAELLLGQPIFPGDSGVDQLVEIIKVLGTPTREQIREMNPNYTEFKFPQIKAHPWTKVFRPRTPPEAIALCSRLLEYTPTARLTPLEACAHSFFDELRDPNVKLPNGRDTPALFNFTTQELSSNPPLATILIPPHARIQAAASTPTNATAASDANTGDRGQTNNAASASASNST
In short: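 Radiometric SPA read-out: after EDTA stop, biotinylated 33P-labelled peptide bound streptavidin PVT beads and was imaged on Leadseeker. Reaction: 60 min, room temperature, GSK3β (h) at 1 μg/ml, 1 μM substrate peptide, 1 μM ATP with 2 nM [γ-33P]ATP, Tris pH 7.4/MgCl2/DTT buffer.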

U87MG = assay: Cellular proliferation assay (Alamar blue), U87MG; assay type: cell-based; conditions: U87MG cells, 72 hours with compound, 10% FCS; for IC50: Homo sapiens, U-87 MG, 72 h, read-out: pIC50 U87MG (converted)
Description: as §1, §2

PC-3 = assay: Cellular proliferation assay (Alamar blue), PC-3; assay type: cell-based; conditions: PC-3 cells, 72 hours with compound, 10% FCS; for IC50: Homo sapiens, PC-3, 72 h, read-out: pIC50 PC-3 (converted)
Description: as §1, §2

CDK1/CyclinB (h) = CDK1/CyclinB (h) (Homo sapiens, UniProt P06493); assay: CDK1/CyclinB human kinase assay (FRET); assay type: biochemical; conditions: for IC50: read-out: CDK1 pIC50 (converted)
CDK1/CyclinB (h), sequence (P06493 whole entry): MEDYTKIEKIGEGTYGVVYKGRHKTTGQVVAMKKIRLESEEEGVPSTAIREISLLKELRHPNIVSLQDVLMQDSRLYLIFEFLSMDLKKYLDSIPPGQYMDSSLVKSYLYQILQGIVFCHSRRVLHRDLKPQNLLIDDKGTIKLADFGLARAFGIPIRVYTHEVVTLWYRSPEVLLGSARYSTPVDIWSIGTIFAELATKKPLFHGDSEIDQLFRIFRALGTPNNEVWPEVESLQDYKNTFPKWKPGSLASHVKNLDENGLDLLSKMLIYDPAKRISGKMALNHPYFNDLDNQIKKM
CDK1/CyclinB (h), sequence (P14635 whole entry partner): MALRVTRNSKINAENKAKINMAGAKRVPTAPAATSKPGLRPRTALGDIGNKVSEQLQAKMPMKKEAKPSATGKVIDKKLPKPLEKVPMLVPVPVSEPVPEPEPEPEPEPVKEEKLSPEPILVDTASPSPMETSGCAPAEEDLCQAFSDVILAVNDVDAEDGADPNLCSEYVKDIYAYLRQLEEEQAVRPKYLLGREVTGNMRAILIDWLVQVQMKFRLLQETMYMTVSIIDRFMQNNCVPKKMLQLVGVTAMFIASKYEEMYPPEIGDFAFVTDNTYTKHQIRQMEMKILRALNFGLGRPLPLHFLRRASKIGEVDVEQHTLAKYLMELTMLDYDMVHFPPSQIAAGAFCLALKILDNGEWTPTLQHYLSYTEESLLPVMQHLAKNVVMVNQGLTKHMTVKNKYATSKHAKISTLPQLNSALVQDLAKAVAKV
Description: The in vitro inhibition of a panel of kinases was assessed using either the scintillation proximity assay (SPA) as described by Cook, N. D. et al., Advances in Experimental Medicine and Biology (1991), 36; p. 525-528; or the Fluorescence Resonance Energy Transfer (FRET) technology as described by Rodems, S. M. et al., Assay Drug Develop. Technol. (2002), 1; p. 9-19.
In the FRET technology the activity of the kinase of interest is measured using an appropriate substrate that is labeled with two fluorophores (coumarin and fluorescein). Phosphorylation is determined using a developing reagent comprising a protease that recognizes and cleaves nonphosphorylated peptides. Cleavage will disturb the FRET between the fluorescein and coumarin on the peptide. Uncleaved, phosphorylated peptides maintain the FRET signal. A ratiometric readout of the donor emission over the acceptor emission quantitates the reaction process.
All kinases are pre-diluted to a 10× working concentration prior to addition into the assay. The composition of the dilution buffer for each kinase is detailed below.
In a final reaction volume of 10 μl, CDK1/CyclinB (h) (0.2 μg/ml) is incubated with 50 mM Hepes pH 7.5, 10 mM MgCl2, 1 mM EGTA, 0.01% Brij-35, 2 μM Z'lyte Ser/Thr peptide 12 and 10 μM ATP (Invitrogen's FRET assay). After incubation of 60 minutes at room temperature, the reaction is stopped by addition of 5 μL development reagent containing protease mix. After 60 minutes room temperature the development reaction is stopped by adding 5 μl stop solution. The plate is then read in fluorescence plate reader with excitation: 390 nm and dual emission: 460 and 538 nm. Emission ratio is determined to the formula=Emission signal intensity at 460 nm/Emission signal intensity at 538 nm.

AuroraB (h), sequence (Q96GD4 whole entry): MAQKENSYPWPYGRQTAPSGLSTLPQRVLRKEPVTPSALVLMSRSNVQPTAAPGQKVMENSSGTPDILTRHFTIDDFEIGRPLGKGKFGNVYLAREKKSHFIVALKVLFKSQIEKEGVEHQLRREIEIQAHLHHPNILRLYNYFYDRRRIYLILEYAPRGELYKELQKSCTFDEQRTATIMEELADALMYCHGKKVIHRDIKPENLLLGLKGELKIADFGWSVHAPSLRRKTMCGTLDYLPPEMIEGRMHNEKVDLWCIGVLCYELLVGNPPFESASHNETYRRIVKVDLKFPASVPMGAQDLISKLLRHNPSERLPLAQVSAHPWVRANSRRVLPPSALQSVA

Compound | IC50 (AuroraB (h)) [µM] | IC50 (H1299) [µM] | IC50 (PLK4 (h)) | IC50 (HCT-116) [µM] | IC50 (A2780) [µM] | IC50 (GSK3β (h)) | IC50 (U87MG) [µM] | IC50 (PC-3) [µM] | IC50 (CDK1/CyclinB (h)) [µM] | pIC50 H1299 (H1299) | IC50 (MDA/MB231) [µM] | pIC50 HCT-116 (HCT-116) | pIC50 A2780 (A2780) | pIC50 U87MG (U87MG) | AuroraB pIC50 (AuroraB (h)) | PLK4 pIC50 (PLK4 (h)) | CDK1 pIC50 (CDK1/CyclinB (h)) | GSK3B pIC50 (GSK3β (h)) | pIC50 PC-3 (PC-3) | pIC50 MDA/MB231 (MDA/MB231)
CN1CCCNc2ncnc3c2/C(=C/Nc2cccc(c2)OCC(=O)N2CCC[C@@H]2C1)C(=O)N3 [Compound 170] | > 10 | > 10 | 7.41 µM | > 10 | > 10 | 8.91 µM | > 10 | > 10 |  |  | > 10 |  |  |  |  |  |  |  |  | 
CN1CCCNc2ncnc3c2/C(=C/Nc2cccc(c2)OCCCCCCC1=O)C(=O)N3 [Compound 69] | 5.01 | > 10 | 3.39 µM | > 10 | > 10 | 1.07 µM | > 10 |  | > 10 |  |  |  |  |  |  |  |  |  |  | 
O=C1Nc2ncnc3c2/C1=C/Nc1ccc(Cl)c(c1)OCCCCCC(=O)N1CCN3CC1 [Compound 25] |  |  | > 10 µM |  | > 10 |  | > 10 | > 10 |  |  | > 10 |  |  |  |  |  |  |  |  | 
CC(C)N1CCCCCCC(=O)N2CCN(CC2)c2ncnc3c2/C(=C/Nc2ccc(F)c(c2)C1)C(=O)N3 [Compound 29] |  |  | > 10 µM | > 10 | > 10 |  | > 10 | > 10 |  |  | > 10 |  |  |  |  |  |  |  |  | 
COc1ccc2cc1OCCCC(=O)NCCCNc1ncnc3c1C(=CN2)C(=O)N3 (mixture of isomers) [Compound 146] |  |  |  |  |  |  |  |  |  | 6.41 |  | 6.15 | 5.83 | 5.80 | 7.24 | 7.34 | 7.21 | 7.56 | 6.22 | 
CN1CCN(c2ccc3cc2OCCCC(=O)N(C)CCCNc2ncnc4c2C(=CN3)C(=O)N4)CC1 (mixture of isomers) [Compound 133] |  |  |  |  |  |  |  |  |  | 5.17 |  | 6.16 | 6.00 | 5.65 | 5.81 | 7.21 | 6.8 | 6.95 | 5.02 | 
O=C1CCCOc2cccc(c2)NC=C2C(=O)Nc3ncnc(c32)NCCCN1 (mixture of isomers) [Compound 142] |  |  |  |  |  |  |  |  |  | 6.14 |  |  | <5 | 5.19 | 6.93 | 7.3 | 6.83 | 7.7 | 5.75 | <5
CN1CCCNc2ncnc3c2/C(=C/Nc2ccc(Cl)c(c2)OCCCCC1=O)C(=O)N3 [Compound 61] | 0.0513 | > 10 | 1.78 µM | 8.71 | > 10 | 0.0631 µM |  | > 10 | > 10 |  | > 10 |  |  |  |  |  |  |  |  | 

The next lines start with results.

IC50 (AuroraB (h)) [µM] | IC50 (H1299) [µM] | IC50 (PLK4 (h)) | IC50 (HCT-116) [µM] | IC50 (A2780) [µM] | IC50 (GSK3β (h)) | IC50 (U87MG) [µM] | IC50 (PC-3) [µM] | IC50 (CDK1/CyclinB (h)) [µM] | Compound | pIC50 H1299 (H1299) | IC50 (MDA/MB231) [µM] | pIC50 HCT-116 (HCT-116) | pIC50 A2780 (A2780) | pIC50 U87MG (U87MG) | AuroraB pIC50 (AuroraB (h)) | PLK4 pIC50 (PLK4 (h)) | CDK1 pIC50 (CDK1/CyclinB (h)) | GSK3B pIC50 (GSK3β (h)) | pIC50 PC-3 (PC-3) | pIC50 MDA/MB231 (MDA/MB231)
3.55 | 8.32 | 1.82 µM and 2 µM | > 10 | 9.12 | 1.86 µM and 3.24 µM | 7.41 | > 10 |  | CN1CCNc2ncnc3c2/C(=C/Nc2cccc(c2)OCC(=O)N[C@H](Cc2ccccc2)C1)C(=O)N3 [Compound 169] | <5 | > 10 | 5.07 | 5.08 | <5 |  |  |  |  |  | 
> 10 | > 10 | 4.37 µM | > 10 | > 10 | 2.88 µM | > 10 | > 10 |  | CN1CCNC(=O)CCCOc2cccc(c2)N/C=C2\C(=O)Nc3ncnc(c32)NCC1 [Compound 159] |  | > 10 |  |  |  |  |  |  |  |  | 
0.617 | > 10 | 0.891 µM | > 10 | > 10 | 1.55 µM | > 10 | > 10 |  | CN1CCCNc2ncnc3c2/C(=C/Nc2ccc(NC(=O)c4ccccc4)c(c2)OCCCC1=O)C(=O)N3 [Compound 108] |  | 8.32 |  |  |  |  |  |  |  |  | 
0.331 | 0.55 | 2.75 µM | 0.229 | 0.166 | 3.55 µM | 1.23 | 1.32 |  | CN1CCCNc2ncnc3c2/C(=C/Nc2ccc(NC(=O)Nc4ccccc4)c(c2)OCCCC1=O)C(=O)N3 [Compound 158] |  | 4.37 |  |  |  |  |  |  |  |  | 
0.0912 | > 10 | 0.224 µM | 0.603 | 0.871 | 0.141 µM | > 10 | > 10 |  | CN1CCCNc2ncnc3c2/C(=C/Nc2ccc(NS(=O)(=O)c4ccccc4)c(c2)OCCCC1=O)C(=O)N3 [Compound 109] |  | > 10 |  |  |  |  |  |  |  |  | 
0.275 | 0.275 | 1.05 µM | 0.17 | 0.0724 | 2 µM | 2.04 | 1.58 |  | CN1CCCNc2ncnc3c2/C(=C/Nc2ccc(NC(=O)NC4CCCCC4)c(c2)OCCCC1=O)C(=O)N3 [Compound 107] |  | 2.34 |  |  |  |  |  |  |  |  | 
6.76 | > 10 | 0.468 µM | > 10 | > 10 | 9.55 µM | > 10 | > 10 |  | CN1CCCNc2ncnc3c2/C(=C/Nc2cccc(c2)OCC(=O)N[C@H](Cc2ccccc2)C1)C(=O)N3 [Compound 176] |  | > 10 |  |  |  |  |  |  |  |  | 
1.86 | > 10 |  | > 10 | > 10 | 4.07 µM | > 10 | > 10 |  | COc1ccc2cc1OCC(=O)NCCN1CCN(CC1)c1ncnc3c1/C(=C/N2)C(=O)N3 [Compound 207] |  | > 10 |  |  |  |  |  |  |  |  | 
0.537 | 2.63 | 0.407 µM | 1.66 | 1.17 | 0.912 µM | 8.71 | 5.01 |  | CN1CCCNc2ncnc3c2/C(=C/Nc2ccc(NCc4ccccc4)c(c2)OCCCC1=O)C(=O)N3 [Compound 110] |  | > 10 |  |  |  |  |  |  |  |  | 
> 10 | > 10 |  | 3.63 | 3.24 | 3.09 µM | 2.69 | 6.46 |  | COc1nc2c3c(n1)NC(=O)/C3=C\Nc1ccc(Cl)c(c1)OCCCCC(=O)N(C)CCCN2 [Compound 111] |  |  |  |  |  |  |  |  |  |  | 
